Data as given in patent US8399522B2, “3.2.1-bicyclo-octane compounds” (International Flavors & Fragrances Inc, priority 2010, dated 2013).

experiment: Mold/mildew malodor coverage, jar test ranked by sensory panel; parameters: species or system human; conditions: compound 10% in solvent
Description: (§1) Establishment of Malodor Models: It is known that the perspirative malodors of human body, particularly sweat, are associated with the production of several unpleasant smelling organic acids, particularly isovaleric acid (“IVA”). The commercial sample of this malodorous material (commercially available at Sigma-Aldrich Inc.) was thus used as a model compound to assess the effectiveness of sweat malodor counteractants. The mold/mildew malodor model was prepared based on applicant's proprietary formulations for assessing the effectiveness of mold/mildew malodor counteractants.
(§2) Preparation of Test Samples: Two aluminum dishes were placed in an 8 oz glass jar. A malodor material was pipetted into one aluminum dish, and a compound of the present invention diluted in a solvent (10%) or a solvent alone control was pipetted into the other aluminum dish. The jar was then capped and the samples were allowed to equilibrate for one hour before the testing.
(§3) Testing Procedure: Test samples were presented in a blind and random order to 15-18 internal panelists (consisting of men/women with an age range of 25 to 55). However, different odor samples were arranged in an alternative order (for example, sweat, mold/mildew, sweat, mold/mildew, and etc.).
(§4) The panelists were instructed to take the steps of i) sniff jars containing only the malodor materials for familiarization prior to the testing; ii) uncap a jar; iii) place their noses at a distance of about 3-4 inches above the opening; iv) take short sniffs for 3 seconds; and v) provide a rank of the malodor coverage using an intensity scale of 1 to 5, where 1 represents “No Coverage”, 3 represents “Moderate Coverage”, and 5 represents “Excellent Coverage”. The means for each sample was then calculated.

| Structure (SMILES) | counteracting mold/mildew malodor (in words) |
| --- | --- |
| CC1C2CCC(C)(C2)CC12OCCO2 (centres unmarked) [Structure 5, 1,4-dimethyl-bicyclo[3.2.1]octan-3-dioxolane] | effective |
| CC1CC2(C)C3CCC(C)(C3)CC2O1 (centres unmarked) [Structure 4, 2,4,8-trimethyl-5-oxa-tricyclo [6.2.1.0*2,6*]undecane] | effective |
| CC12CCC(C1)C1(C)OC1C2 (centres unmarked) [Structure 1, 2,6-dimethyl-3-oxa-tricyclo[4.2.1.0*2,4*]nonane] | effective |
| CC1C(=O)CC2(C)CCC1C2 (centres unmarked) [Structure 2, 1,4-dimethyl-bicyclo[3.2.1]octan-3-one] | effective |

same assay, conditions: compound 10% in solvent; 8 oz jar, 1 hour equilibration; 15-18 panelists; scale 1 (No Coverage), 3 (Moderate Coverage), 5 (Excellent Coverage)

| Structure (SMILES) | Mold/Mildew Malodor, mean rank of malodor coverage |
| --- | --- |
| CC1C2CCC(C)(C2)CC12OCCO2 (centres unmarked) [Structure 5, 1,4-dimethyl-bicyclo[3.2.1]octan-3-dioxolane] | 2.39 |
| CC1CC2(C)C3CCC(C)(C3)CC2O1 (centres unmarked) [Structure 4, 2,4,8-trimethyl-5-oxa-tricyclo [6.2.1.0*2,6*]undecane] | 2.79 |
| CC12CCC(C1)C1(C)OC1C2 (centres unmarked) [Structure 1, 2,6-dimethyl-3-oxa-tricyclo[4.2.1.0*2,4*]nonane] | 3.87 |
| CC1C(=O)CC2(C)CCC1C2 (centres unmarked) [Structure 2, 1,4-dimethyl-bicyclo[3.2.1]octan-3-one] | 3.63 |

experiment: Vapor pressure; format: physicochemical; conditions: not given

| Vapor Pressure | Structure (SMILES) |
| --- | --- |
| 1281 µg/L | CC1C2CCC(C)(C2)CC12OCCO2 (centres unmarked) [Structure 5, 1,4-dimethyl-bicyclo[3.2.1]octan-3-dioxolane] |
| 1045 µg/L | CC1CC2(C)C3CCC(C)(C3)CC2O1 (centres unmarked) [Structure 4, 2,4,8-trimethyl-5-oxa-tricyclo [6.2.1.0*2,6*]undecane] |
| 2186 µg/L | CC12CCC(C1)C1(C)OC1C2 (centres unmarked) [Structure 1, 2,6-dimethyl-3-oxa-tricyclo[4.2.1.0*2,4*]nonane] |
| 4305 µg/L | CC1C(=O)CC2(C)CCC1C2 (centres unmarked) [Structure 2, 1,4-dimethyl-bicyclo[3.2.1]octan-3-one] |

experiment: Sweat malodor coverage, jar test ranked by sensory panel; parameters: species or system human; conditions: compound 10% in solvent
Description: as §1, §2, §3, §4

| Structure (SMILES) | counteracting sweat malodor (in words) |
| --- | --- |
| CC1C2CCC(C)(C2)CC12OCCO2 (centres unmarked) [Structure 5, 1,4-dimethyl-bicyclo[3.2.1]octan-3-dioxolane] | effective |
| CC1CC2(C)C3CCC(C)(C3)CC2O1 (centres unmarked) [Structure 4, 2,4,8-trimethyl-5-oxa-tricyclo [6.2.1.0*2,6*]undecane] | effective |
| CC12CCC(C1)C1(C)OC1C2 (centres unmarked) [Structure 1, 2,6-dimethyl-3-oxa-tricyclo[4.2.1.0*2,4*]nonane] | effective |
| CC1C(=O)CC2(C)CCC1C2 (centres unmarked) [Structure 2, 1,4-dimethyl-bicyclo[3.2.1]octan-3-one] | effective |

same assay, conditions: compound 10% in solvent; 8 oz jar, 1 hour equilibration; 15-18 panelists; scale 1 (No Coverage), 3 (Moderate Coverage), 5 (Excellent Coverage)

| Structure (SMILES) | Sweat Malodor, mean rank of malodor coverage |
| --- | --- |
| CC1C2CCC(C)(C2)CC12OCCO2 (centres unmarked) [Structure 5, 1,4-dimethyl-bicyclo[3.2.1]octan-3-dioxolane] | 2.92 |
| CC1CC2(C)C3CCC(C)(C3)CC2O1 (centres unmarked) [Structure 4, 2,4,8-trimethyl-5-oxa-tricyclo [6.2.1.0*2,6*]undecane] | 3.11 |
| CC12CCC(C1)C1(C)OC1C2 (centres unmarked) [Structure 1, 2,6-dimethyl-3-oxa-tricyclo[4.2.1.0*2,4*]nonane] | 3.59 |
| CC1C(=O)CC2(C)CCC1C2 (centres unmarked) [Structure 2, 1,4-dimethyl-bicyclo[3.2.1]octan-3-one] | 3.57 |
